Values of other authors in US5523456A, “Inhibitors of farnesyl-protein transferase” (Merck & Co., Inc., priority 1994, dated 1996).

Tested on: Ras farnesylation
Details: Hancock et al.; Casey et al.; Schafer et al.

Row | Compound | Inhibition of Ras farnesylation in vivo
1 | CC[C@H](C)C(=O)O[C@H]1CCC=C2C=C[C@H](C)[C@H](CC[C@@H]3C[C@@H](O)CC(=O)O3)[C@H]21 [compactin] | Inhibition of Ras farnesylation in vivo has been demonstrated
2 | CC[C@H](C)C(=O)O[C@H]1C[C@@H](C)C=C2C=C[C@H](C)[C@H](CC[C@@H]3C[C@@H](O)CC(=O)O3)[C@H]21 [lovastatin] | Inhibition of Ras farnesylation in vivo has been demonstrated
